In patent US20260007681A1, “INDOLE DERIVATIVES AS ESTROGEN RECEPTOR DEGRADERS” (REGENTS OF THE UNIVERSITY OF MICHIGAN, priority 2022, published 2026):

Tests used:
[1] = Cell growth assay (WST-8) (Compounds B1-B278); assay type: cell-based; settings: 96 h; T47D cell line; WST-8, 4 days; read-out: Cell Growth Inhibition in T47D cell line IC50
Method in brief: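 Read-out is WST-8 absorbance at 450 nm (2.5 h, 37° C) as a fraction of vehicle control, from three separate repeats. Compound exposure lasted 4 days, starting one day after plating 1500 cells/well.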

ER = ER (Homo sapiens (Human), UniProt P03372); test: In-cell western blot analysis of relative ER percentage (Compounds B1-B278); assay type: cell-based; settings: ER degradation, 16 hours, read-out: ICW DC50
Sequence of ER (P03372 whole entry): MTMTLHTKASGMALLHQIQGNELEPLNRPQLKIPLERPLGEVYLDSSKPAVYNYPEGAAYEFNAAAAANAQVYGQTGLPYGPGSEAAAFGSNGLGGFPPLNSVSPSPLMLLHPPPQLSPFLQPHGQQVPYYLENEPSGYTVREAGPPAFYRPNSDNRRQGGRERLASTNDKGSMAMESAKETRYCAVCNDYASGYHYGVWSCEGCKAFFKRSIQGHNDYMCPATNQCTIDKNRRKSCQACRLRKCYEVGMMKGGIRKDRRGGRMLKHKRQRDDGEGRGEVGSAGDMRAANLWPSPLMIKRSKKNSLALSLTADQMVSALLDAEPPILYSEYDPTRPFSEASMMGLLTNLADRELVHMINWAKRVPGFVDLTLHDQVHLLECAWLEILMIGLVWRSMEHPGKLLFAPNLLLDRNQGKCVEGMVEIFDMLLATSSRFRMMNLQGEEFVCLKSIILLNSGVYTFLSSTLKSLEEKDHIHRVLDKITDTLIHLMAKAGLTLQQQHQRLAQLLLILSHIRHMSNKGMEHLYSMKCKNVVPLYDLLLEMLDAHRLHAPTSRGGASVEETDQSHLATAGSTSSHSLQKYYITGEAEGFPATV
Method in brief: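 In-cell western: after 16 h compound exposure (0.5% DMSO final), fixed and permeabilized cells are probed with anti-ER plus anti-GAPDH and near-infrared secondaries. Relative ER percentage compares treated wells against untreated and DMSO wells taken as 100%; seeding 40,000 or 10,000 cells/well.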

Row | DC50 (ER) [nM] | Compound | IC50 [1] [nM]
1 | < 10 | C[C@@H]1Cc2c([nH]c3ccccc23)[C@@H](c2cnc(N3CCC4(CC3)CC(CN3CCN5c6ccc7c(c6OC[C@H]5C3)CN(C3CCC(=O)NC3=O)C7=O)C4)nc2)N1CC(C)(C)F (stereo partly drawn) [Compound B180, 3-((R)-7-((7-(5-((1R,3R)-2-(2-fluoro-2-methylpropyl)-3-methyl-2,3,4,9-tetrahydro-1H-pyrido[3,4-b]indol-1-yl)pyrimidin-2-yl)-7-azaspiro[3.5]nonan-2-yl)methyl)-1-oxo-1,3,5,5a,6,7,8,9-octahydro-2H-pyrazino[1′,2′:4,5][1,4]oxazino[2,3-e]isoindol-2-yl)piperidine-2,6-dione] | 1 to 10
2 | 10 to 100 | C[C@@H]1Cc2c([nH]c3ccccc23)[C@@H](c2c(F)cc(NC3CN(C(=O)CN4CCN5c6cc7c(cc6OC[C@@H]5C4)C(=O)N(C4CCC(=O)NC4=O)C7)C3)cc2F)N1CC(F)(F)CO (stereo partly drawn) [Compound B118, 3-((S)-3-(2-(3-((4-((1R,3R)-2-(2,2-difluoro-3-hydroxypropyl)-3-methyl-2,3,4,9-tetrahydro-1H-pyrido[3,4-b]indol-1-yl)-3,5-difluorophenyl)amino)azetidin-1-yl)-2-oxoethyl)-8-oxo-1,2,3,4,4a,5,8,10-octahydro-9H-pyrazino[1′,2′:4,5][1,4]oxazino[2,3-f]isoindol-9-yl)piperidine-2,6-dione] | 1 to 10
3 | 10 to 100 | C[C@@H]1Cc2c([nH]c3ccccc23)[C@@H](c2c(F)cc(C3CCN(C(=O)CN4CCN5c6cc7c(cc6OC[C@@H]5C4)C(=O)N(C4CCC(=O)NC4=O)C7)CC3)cc2F)N1CC(F)F (stereo partly drawn) [Compound B119, 3-((S)-3-(2-(4-(4-((1R,3R)-2-(2,2-difluoroethyl)-3-methyl-2,3,4,9-tetrahydro-1H-pyrido[3,4-b]indol-1-yl)-3,5-difluorophenyl)piperidin-1-yl)-2-oxoethyl)-8-oxo-1,2,3,4,4a,5,8,10-octahydro-9H-pyrazino[1′,2′:4,5][1,4]oxazino[2,3-f]isoindol-9-yl)piperidine-2,6-dione] | < 1
4 | < 10 | C[C@@H]1Cc2c([nH]c3ccccc23)[C@@H](c2cnc(N3CCC4(CC3)CC(CN3CCN5c6cc7c(cc6OC[C@@H]5C3)C(=O)N(C3CCC(=O)NC3=O)C7)C4)nc2)N1CC(F)F (stereo partly drawn) [Compound B135, 3-((S)-3-((7-(5-((1R,3R)-2-(2,2-difluoroethyl)-3-methyl-2,3,4,9-tetrahydro-1H-pyrido[3,4-b]indol-1-yl)pyrimidin-2-yl)-7-azaspiro[3.5]nonan-2-yl)methyl)-8-oxo-1,2,3,4,4a,5,8,10-octahydro-9H-pyrazino[1′,2′:4,5][1,4]oxazino[2,3-f]isoindol-9-yl)piperidine-2,6-dione] | 1 to 10
5 | > 100 | C[C@@H]1Cc2c([nH]c3ccccc23)[C@@H](c2cnc(N3CCC(CN4CCN5c6ccc7c(c6OC[C@@H]5C4)CN(C4CCC(=O)NC4=O)C7=O)CC3)nc2)N1CC(C)(C)F (stereo partly drawn) [Compound B258, 3-((S)-7-((1-(5-((1R,3R)-2-(2-fluoro-2-methylpropyl)-3-methyl-2,3,4,9-tetrahydro-1H-pyrido[3,4-b]indol-1-yl)pyrimidin-2-yl)piperidin-4-yl)methyl)-1-oxo-1,3,5,5a,6,7,8,9-octahydro-2H-pyrazino[1′,2′:4,5][1,4]oxazino[2,3-e]isoindol-2-yl)piperidine-2,6-dione] | < 1
6 | < 10 | COc1cc(N2CCC3(CC2)CC(CN2CCN4c5cc6c(cc5OC[C@@H]4C2)C(=O)N(C2CCC(=O)NC2=O)C6)C3)ccc1[C@@H]1c2[nH]c3ccccc3c2C[C@@H](C)N1CC(F)F (stereo partly drawn) [Compound B141, 3-((S)-3-((7-(4-((1R,3R)-2-(2,2-difluoroethyl)-3-methyl-2,3,4,9-tetrahydro-1H-pyrido[3,4-b]indol-1-yl)-3-methoxyphenyl)-7-azaspiro[3.5]nonan-2-yl)methyl)-8-oxo-1,2,3,4,4a,5,8,10-octahydro-9H-pyrazino[1′,2′:4,5][1,4]oxazino[2,3-f]isoindol-9-yl)piperidine-2,6-dione] | 1 to 10
7 | > 100 | C[C@@H]1Cc2c([nH]c3ccccc23)[C@@H](c2cnc(N3CC4(CCC(N5CCN6c7ccc8c(c7OC[C@H]6C5)CN(C5CCC(=O)NC5=O)C8=O)CC4)C3)nc2)N1CC(F)F (stereo partly drawn) [Compound B156, 3-((R)-7-(2-(5-((1R,3R)-2-(2,2-difluoroethyl)-3-methyl-2,3,4,9-tetrahydro-1H-pyrido[3,4-b]indol-1-yl)pyrimidin-2-yl)-2-azaspiro[3.5]nonan-7-yl)-1-oxo-1,3,5,5a,6,7,8,9-octahydro-2H-pyrazino[1′,2′:4,5][1,4]oxazino[2,3-e]isoindol-2-yl)piperidine-2,6-dione] | > 10
8 | > 100 | C[C@@H]1Cc2c([nH]c3ccccc23)[C@@H](c2cnc(N3CCC(CCN4CCN5c6ccc7c(c6OC[C@H]5C4)CN(C4CCC(=O)NC4=O)C7=O)CC3)nc2)N1CC(F)(F)CO (stereo partly drawn) [Compound B159, 3-((R)-7-(2-(1-(5-((1R,3R)-2-(2,2-difluoro-3-hydroxypropyl)-3-methyl-2,3,4,9-tetrahydro-1H-pyrido[3,4-b]indol-1-yl)pyrimidin-2-yl)piperidin-4-yl)ethyl)-1-oxo-1,3,5,5a,6,7,8,9-octahydro-2H-pyrazino[1′,2′:4,5][1,4]oxazino[2,3-e]isoindol-2-yl)piperidine-2,6-dione] | > 10
9 | 10 to 100 | C[C@@H]1Cc2c([nH]c3ccccc23)[C@@H](c2c(F)cc(N3CC(C(=O)N4CCN5c6ccc7c(c6OC[C@H]5C4)CN(C4CCC(=O)NC4=O)C7=O)C3)cc2F)N1CC(F)F (mixture of isomers) [Compound B251, 3-((RS)-7-(1-(4-((1R,3R)-2-(2,2-difluoroethyl)-3-methyl-2,3,4,9-tetrahydro-1H-pyrido[3,4-b]indol-1-yl)-3,5-difluorophenyl)azetidine-3-carbonyl)-1-oxo-1,3,5,5a,6,7,8,9-octahydro-2H-pyrazino[1′,2′:4,5][1,4]oxazino[2,3-e]isoindol-2-yl)piperidine-2,6-dione] | < 1
10 | > 100 | C[C@@H]1Cc2c([nH]c3ccccc23)[C@@H](c2cnc(N3CC4(C3)OCC(CN3CCN5c6cc7c(cc6OC[C@@H]5C3)C(=O)N(C3CCC(=O)NC3=O)C7)CO4)nc2)N1CC(F)(F)CO (stereo partly drawn) [Compound B276, 3-((S)-3-((2-(5-((1R,3R)-2-(2,2-difluoro-3-hydroxypropyl)-3-methyl-2,3,4,9-tetrahydro-1H-pyrido[3,4-b]indol-1-yl)pyrimidin-2-yl)-5,9-dioxa-2-azaspiro[3.5]nonan-7-yl)methyl)-8-oxo-1,2,3,4,4a,5,8,10-octahydro-9H-pyrazino[1′,2′:4,5][1,4]oxazino[2,3-f]isoindol-9-yl)piperidine-2,6-dione] | > 10
11 | < 10 | COc1cc(N2CCC3(CC2)CC(CN2CCN4c5ccc6c(c5OC[C@H]4C2)CN(C2CCC(=O)NC2=O)C6=O)CO3)ccc1[C@@H]1c2[nH]c3ccccc3c2C[C@@H](C)N1CC(F)F (stereo partly drawn) [Compound B143, 3-((5aR)-7-((8-(4-((1R,3R)-2-(2,2-difluoroethyl)-3-methyl-2,3,4,9-tetrahydro-1H-pyrido[3,4-b]indol-1-yl)-3-methoxyphenyl)-1-oxa-8-azaspiro[4.5]decan-3-yl)methyl)-1-oxo-1,3,5,5a,6,7,8,9-octahydro-2H-pyrazino[1′,2′:4,5][1,4]oxazino[2,3-e]isoindol-2-yl)piperidine-2,6-dione] | < 1
12 | > 100 | C[C@@H]1Cc2c([nH]c3ccccc23)[C@@H](c2cnc(N3CCC(CCN4CCN5c6ccc7c(c6OC[C@H]5C4)CN(C4CCC(=O)NC4=O)C7=O)CC3)nc2)N1CC(F)F (stereo partly drawn) [Compound B160, 3-((R)-7-(2-(1-(5-((1R,3R)-2-(2,2-difluoroethyl)-3-methyl-2,3,4,9-tetrahydro-1H-pyrido[3,4-b]indol-1-yl)pyrimidin-2-yl)piperidin-4-yl)ethyl)-1-oxo-1,3,5,5a,6,7,8,9-octahydro-2H-pyrazino[1′,2′:4,5][1,4]oxazino[2,3-e]isoindol-2-yl)piperidine-2,6-dione] | 1 to 10
13 | > 100 | C[C@@H]1Cc2c([nH]c3ccccc23)[C@@H](c2c(F)cc(N3CCN(C(=O)CN4CCN5c6ccc7c(c6OC[C@H]5C4)CN(C4CCC(=O)NC4=O)C7=O)CC3)cc2F)N1CC(F)F (stereo partly drawn) [Compound B151, 3-((R)-7-(2-(4-(4-((1R,3R)-2-(2,2-difluoroethyl)-3-methyl-2,3,4,9-tetrahydro-1H-pyrido[3,4-b]indol-1-yl)-3,5-difluorophenyl)piperazin-1-yl)-2-oxoethyl)-1-oxo-1,3,5,5a,6,7,8,9-octahydro-2H-pyrazino[1′,2′:4,5][1,4]oxazino[2,3-e]isoindol-2-yl)piperidine-2,6-dione] | < 1

Row | Compound | DC50 (ER) [nM] | IC50 [1] [nM]
14 | COc1cc(N2CCC3(CC2)OCC(CN2CCC4(CC2)COc2c4ccc4c2CN(C2CCC(=O)NC2=O)C4=O)CO3)ccc1[C@@H]1c2[nH]c3ccccc3c2C[C@@H](C)N1CC(F)F (stereo partly drawn) [Compound B274, 3-(1′-((9-(4-((1R,3R)-2-(2,2-difluoroethyl)-3-methyl-2,3,4,9-tetrahydro-1H-pyrido[3,4-b]indol-1-yl)-3-methoxyphenyl)-1,5-dioxa-9-azaspiro[5.5]undecan-3-yl)methyl)-6-oxo-6,8-dihydro-2H,7H-spiro[furo[2,3-e]isoindole-3,4′-piperidin]-7-yl)piperidine-2,6-dione] | 10 to 100 | < 1
